Consider 20 molecules from patent US20250026759A1 (Merck Sharp & Dohme LLC, priority 2023, published 2025).

Each structure is given as a SMILES string. pEC50: −log10 of the molar value.

The test system of this test is PBMCs infected with VSV-G pseudotyped HIV virus (VSV-G/pNLG1-P2A-ΔEnv). As to the kind of experiment: cells. Type of test: cell-based, human. The conditions noted are these: Homo sapiens, PBMC, read-out: TACK EC50.
As to `COCc1cnn(Cc2cc3c(cc2F)[C@@](C#CC2CC2)(C(C)(F)F)NC(=O)N3)c1` [Example 64, (S)-4-(cyclopropylethynyl)-4-(1,1-difluoroethyl)-6-fluoro-7-((4-(methoxymethyl)-1H-pyrazol-1-yl)methyl)-3,4-dihydroquinazolin-2(1H)-one], the pEC50 is 7.47.
For `COCc1ncn(Cc2cc3c(cc2F)[C@@](C#CC2CC2)(C(C)(F)F)NC(=O)N3)n1` [Example 65, (S)-4-(cyclopropylethynyl)-4-(1,1-difluoroethyl)-6-fluoro-7-((3-(methoxymethyl)-1H-1,2,4-triazol-1-yl)methyl)-3,4-dihydroquinazolin-2(1H)-one] the value was 7.42; for `COCc1nn(Cc2cc3c(cc2F)[C@@](C#CC2CC2)(C(C)(F)F)NC(=O)N3)cc1Cl` [Example 66, (S)-7-((4-chloro-3-(methoxymethyl)-1H-pyrazol-1-yl)methyl)-4-(cyclopropylethynyl)-4-(1,1-difluoroethyl)-6-fluoro-3,4-dihydroquinazolin-2(1H)-one], 7.41.
As for `CC(F)(F)[C@@]1(C#CC2CC2)NC(=O)Nc2cc(Cn3cc(F)c(CO)n3)c(F)cc21` [Example 67, (S)-4-(cyclopropylethynyl)-4-(1,1-difluoroethyl)-6-fluoro-7-((4-fluoro-3-(hydroxymethyl)-1H-pyrazol-1-yl)methyl)-3,4-dihydroquinazolin-2(1H)-one], the figure is 7.58; as for `Cc1cn(Cc2cc3c(cc2F)[C@@](C#CC2CC2)(C(C)(F)F)NC(=O)N3)nc1CO` [Example 68, (S)-4-(cyclopropylethynyl)-4-(1,1-difluoroethyl)-6-fluoro-7-((3-(hydroxymethyl)-4-methyl-1H-pyrazol-1-yl)methyl)-3,4-dihydroquinazolin-2(1H)-one], 7.51; as for `CC(F)(F)[C@@]1(C#CC2CC2)NC(=O)Nc2cc(Cn3nc(CO)cc3Cl)c(F)cc21` [Example 69, (S)-7-((5-chloro-3-(hydroxymethyl)-1H-pyrazol-1-yl)methyl)-4-(cyclopropylethynyl)-4-(1,1-difluoroethyl)-6-fluoro-3,4-dihydroquinazolin-2(1H)-one], 7.53.
As for `CC(F)(F)[C@@]1(C#CC2CC2)NC(=O)Nc2cc(Cn3cc(CCO)cn3)c(F)cc21` [Example 70, (S)-4-(cyclopropylethynyl)-4-(1,1-difluoroethyl)-6-fluoro-7-((4-(2-hydroxyethyl)-1H-pyrazol-1-yl)methyl)-3,4-dihydroquinazolin-2(1H)-one], the figure is 7.29.
With `CC(F)(F)[C@@]1(C#CC2CC2)NC(=O)Nc2cc(Cn3cc(Cl)c(CO)n3)c(F)cc21` [Example 71, (S)-7-((4-chloro-3-(hydroxymethyl)-1H-pyrazol-1-yl)methyl)-4-(cyclopropylethynyl)-4-(1,1-difluoroethyl)-6-fluoro-3,4-dihydroquinazolin-2(1H)-one], the pEC50 was 7.52.
With `COc1nccn1Cc1cc2c(cc1F)[C@@](C#CC1CC1)(C(C)(F)F)NC(=O)N2` [Example 74, (S)-4-(cyclopropylethynyl)-4-(1,1-difluoroethyl)-6-fluoro-7-((2-methoxy-1H-imidazol-1-yl)methyl)-3,4-dihydroquinazolin-2(1H)-one], the pEC50 was 7.42.
For `CNc1ccn(Cc2cc3c(cc2F)[C@@](C#CC2CC2)(C(C)(F)F)NC(=O)N3)n1` [Example 75, (S)-4-(cyclopropylethynyl)-4-(1,1-difluoroethyl)-6-fluoro-7-((3-(methylamino)-1H-pyrazol-1-yl)methyl)-3,4-dihydroquinazolin-2(1H)-one], the pEC50 is 7.43.
For `CN(C)c1ccn(Cc2cc3c(cc2F)[C@@](C#CC2CC2)(C(C)(F)F)NC(=O)N3)n1` [Example 76, (S)-4-(cyclopropylethynyl)-4-(1,1-difluoroethyl)-7-((3-(dimethylamino)-1H-pyrazol-1-yl)methyl)-6-fluoro-3,4-dihydroquinazolin-2(1H)-one] the value was 7.22; for `CC(F)(F)[C@@]1(C#CC2CC2)NC(=O)Nc2cc(CNC(=O)c3[nH]cnc3Cl)c(F)cc21` [Example 77, (S)-4-chloro-N-((4-(cyclopropylethynyl)-4-(1,1-difluoroethyl)-6-fluoro-2-oxo-1,2,3,4-tetrahydroquinazolin-7-yl)methyl)-1H-imidazole-5-carboxamide], 8.06.
As for `O=C1Nc2cc(CNC(=O)c3[nH]cnc3Cl)c(F)cc2[C@@](C#CC2CC2)(C(F)(F)F)N1` [Example 78, (S)-4-chloro-N-((4-(cyclopropylethynyl)-6-fluoro-2-oxo-4-(trifluoromethyl)-1,2,3,4-tetrahydroquinazolin-7-yl)methyl)-1H-imidazole-5-carboxamide], the figure is 7.82.
For `CC(F)(F)[C@@]1(C#CC2CC2)NC(=O)Nc2cc(CNC(=O)c3ncc[nH]3)c(F)cc21` [Example 79, (S)—N-((4-(cyclopropylethynyl)-4-(1,1-difluoroethyl)-6-fluoro-2-oxo-1,2,3,4-tetrahydroquinazolin-7-yl)methyl)-1H-imidazole-2-carboxamide] the value was 8.04; for `O=C1Nc2cc(CNC(=O)c3ncc[nH]3)c(F)cc2[C@@](C#CC2CC2)(C(F)(F)F)N1` [Example 80, (S)-N-((4-(cyclopropylethynyl)-6-fluoro-2-oxo-4-(trifluoromethyl)-1,2,3,4-tetrahydroquinazolin-7-yl)methyl)-1H-imidazole-2-carboxamide], 8.01.
Consider `CN(Cc1cc2c(cc1F)[C@@](C#CC1CC1)(C(C)(F)F)NC(=O)N2)C(=O)c1ncc[nH]1` [Example 81, (S)-N-((4-(cyclopropylethynyl)-4-(1,1-difluoroethyl)-6-fluoro-2-oxo-1,2,3,4-tetrahydroquinazolin-7-yl)methyl)-N-methyl-1H-imidazole-2-carboxamide], for which the pEC50 is 7.92.
As for `Cn1ccnc1C(=O)NCc1cc2c(cc1F)[C@@](C#CC1CC1)(C(C)(F)F)NC(=O)N2` [Example 82, (S)-N-((4-(cyclopropylethynyl)-4-(1,1-difluoroethyl)-6-fluoro-2-oxo-1,2,3,4-tetrahydroquinazolin-7-yl)methyl)-1-methyl-1H-imidazole-2-carboxamide], the figure is 6.81; as for `O=C1Nc2cc(CNC(=O)c3ncco3)c(F)cc2[C@@](C#CC2CC2)(C(F)(F)F)N1` [Example 83, (S)-N-((4-(cyclopropylethynyl)-6-fluoro-2-oxo-4-(trifluoromethyl)-1,2,3,4-tetrahydroquinazolin-7-yl)methyl)oxazole-2-carboxamide], 6.80.
As for `Cc1nc(N)sc1C(=O)NCc1cc2c(cc1F)[C@@](C#CC1CC1)(C(F)(F)F)NC(=O)N2` [Example 84, (S)-2-amino-N-((4-(cyclopropylethynyl)-6-fluoro-2-oxo-4-(trifluoromethyl)-1,2,3,4-tetrahydroquinazolin-7-yl)methyl)-4-methylthiazole-5-carboxamide], the figure is 6.56; as for `O=C1Nc2cc(CNC(=O)c3nnc[nH]3)c(F)cc2[C@@](C#CC2CC2)(C(F)(F)F)N1` [Example 85, (S)-N-((4-(cyclopropylethynyl)-6-fluoro-2-oxo-4-(trifluoromethyl)-1,2,3,4-tetrahydroquinazolin-7-yl)methyl)-4H-1,2,4-triazole-3-carboxamide], 6.55.
